Laboratory results reported in patent publication US4220771A, “2,3-Polymethylene-4-oxo-4H-pyrido[1,2-a]pyrimidines” (Chinoin Gyogyszer es Vegyeszeti Termekek Gyara Rt, priority 1977, dated 1980).
Where a name gives a salt, the structure may show the parent alone.

Key:
Format in all cases: in vivo
mice [1] = experiment: analgesic activity, "hot plate" test; settings: for ED50: Mus musculus
Description: (§1) Also the analgesic and morphine-potentiating activities were investigated on mice. The test results obtained in a "hot plate" test (J. Pharm. Exp. Therp. 80 130 (1944) and Kiserl. Orvostudomany 2, 295 (1950) and results obtained in laparotomic test of Knoll (Animal and Clinical Pharmacologic Techniques in Drug Evaluation. Vol. 2. 305-321 (1967), Year Book Publ. Chicago) are shown in Table 1.

mice [2] = experiment: morphine-potentiating activity; settings: i.v., with 5 mg. morphine
Description: as §1

[3] = toxicity in mice, 48 hours observation, Litchfield-Wilcoxon graphic method; settings: mouse, in vivo
mice [4] = experiment: as above

| SMILES | ED50 (mice [1]; sc) [mg/kg] | Dose potentiating the activity of 5 mg. morphine, ED50 (mice [2]) [mg/kg] | LD50 at 48 h ([3]; iv) [mg/kg] | LD50 at 48 h ([3]; sc) [mg/kg] | ED50 (mice [1]; iv) [mg/kg] | Hot plate ED50 (mice [1]; i.v.) [mg/kg] | Hot plate ED50 (mice [1]; s.c.) [mg/kg] | LD50 (mice [4]; i.v.) [mg/kg] | LD50 (mice [4]; s.c.) [mg/kg] |
| --- | --- | --- | --- | --- | --- | --- | --- | --- | --- |
| O=c1c2c(nc3ccccn13)CCCCCC2 [2,3-hexamethylene-4-oxo-4H-pyrido(1,2-a)pyrimidine-hydrochloride] | 105 | 4.5 | 125 | 500 |  |  |  |  |  |
| O=c1c2c(nc3ccccn13)CCCCC2 [2,3-pentamethylene-4-oxo-4H-pyrido(1,2-a)pyrimidine-hydrochloride] | 66 | 3.7 | 210 | 630 |  |  |  |  |  |
| Cc1cccc2nc3c(c(=O)n12)CCCC3 [2,3-tetramethylene-6-methyl-4-oxo-4H-pyrido(1,2-a)pyrimidine-hydrochloride] |  | 7.8 | 160 |  |  |  |  |  |  |
| Cc1cc(C)n2c(=O)c3c(nc2c1)CCC3 [2,3-trimethylene-6,8-dimethyl-4-oxo-4H-pyrido(1,2-a)pyrimidine-hydrochloride] |  | 1.0 | 120 |  | 42 |  |  |  |  |
| Cc1ccc2nc3c(c(=O)n2c1)CCC3 [2,3-trimethylene-7-methyl-4-oxo-4H-pyrido(1,2-a)pyrimidine-hydrochloride] |  | 1.0 | 120 |  | 47 |  |  |  |  |
| Cc1ccn2c(=O)c3c(nc2c1)CCC3 [2,3-trimethylene-8-methyl-4-oxo-4H-pyrido(1,2-a)pyrimidine-hydrochloride] |  | 4.8 | 120 |  | 65 |  |  |  |  |
| CCOC(=O)c1c[n+](C)c2n(c1=O)C(C)CCC2.COS(=O)(=O)[O-] (stereo not drawn) [PROBON, reference compound] |  | 25.0 |  |  |  | 43 | 75 | 220 | 790 |
